# Measured values taken from ChEMBL document CHEMBL1201862, “PubChem BioAssay data set” (2004).
# The source made the active and inactive calls.
# Tests used:
# [1] = control 3'UTR Renilla luciferase suppression, dose response, counter-screen for Shn3 inhibitor project, cell-based, Clone20-Shn3RL, cherry-picked (AID 624133); type: functional
# [2] = Shn3 3'UTR reporter inhibitors, dose response, cell-based, Clone20 osteoblasts, firefly luciferase, cherry-picked (AID 624132); type: functional;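 also: firefly luciferase luminescence from reporter carrying the Shn3 3'UTR in osteoblasts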
# [3] = inhibitors of control Renilla luciferase reporter, dose response, counter-screen for Shn3 3'UTR targeting project, Clone20-Shn3RL cells, dual-Glo, cherry-pick, set 2 (AID 720724); type: functional, cell-based; details: Dual-Go Shn3RL
# [4] = reduction of Shn3 3'UTR firefly luciferase signal, dose response, Schnurri-3 inhibitor project, cell-based, Clone20 osteoblasts, cherry-pick, set 2 (AID 720490); type: functional;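 also: actives lower the luminescence signal as inhibitors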
# [5] = HEK293 Cytotoxicity Assay Measured in Cell-Based System Using Plate Reader - 7071-01_Inhibitor_Dose_CherryPick_Activity_Set2.; type: functional
# [6] = system: HEK293; assay: HEK293T cell cytotoxicity, dose response, cytotoxicity control, ATP luminescence, cherry-pick samples (AID 687005); type: functional, cell-based; details: Homo sapiens;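 also: cells exposed to compound for 48 hours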
# [7] = target: Disintegrin and metalloproteinase domain-containing protein 17 (Homo sapiens, UniProt P78536); assay: ADAM17 protease inhibitors, dose response, counter-screen for ADAM10 exosite inhibitor project, biochemical, quenched FRET substrate (AID 743253)
# Sequence of Disintegrin and metalloproteinase domain-containing protein 17 (P78536 whole entry, the tested form may be a part): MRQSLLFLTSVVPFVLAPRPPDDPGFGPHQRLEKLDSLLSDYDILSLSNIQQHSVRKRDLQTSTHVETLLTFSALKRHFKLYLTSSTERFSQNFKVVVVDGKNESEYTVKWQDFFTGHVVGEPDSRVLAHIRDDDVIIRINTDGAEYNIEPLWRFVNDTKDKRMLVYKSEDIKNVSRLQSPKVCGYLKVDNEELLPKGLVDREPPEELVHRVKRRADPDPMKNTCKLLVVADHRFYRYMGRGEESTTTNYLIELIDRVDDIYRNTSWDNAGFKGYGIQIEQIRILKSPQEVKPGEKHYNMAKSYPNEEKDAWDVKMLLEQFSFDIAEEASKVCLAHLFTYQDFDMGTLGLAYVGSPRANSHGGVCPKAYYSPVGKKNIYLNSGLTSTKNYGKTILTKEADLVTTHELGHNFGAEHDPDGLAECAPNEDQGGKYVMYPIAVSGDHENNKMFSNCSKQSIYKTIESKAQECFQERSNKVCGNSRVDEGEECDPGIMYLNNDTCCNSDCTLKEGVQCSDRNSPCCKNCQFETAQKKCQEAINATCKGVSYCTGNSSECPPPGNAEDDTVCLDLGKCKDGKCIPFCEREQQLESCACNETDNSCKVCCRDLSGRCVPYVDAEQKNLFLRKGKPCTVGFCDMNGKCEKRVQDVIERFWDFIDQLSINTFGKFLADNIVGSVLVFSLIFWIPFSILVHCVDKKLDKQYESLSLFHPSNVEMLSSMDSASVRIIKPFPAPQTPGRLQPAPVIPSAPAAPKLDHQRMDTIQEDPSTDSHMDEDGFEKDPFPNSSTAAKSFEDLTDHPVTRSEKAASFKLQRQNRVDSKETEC
# [8] = system: Streptococcus; assay: Group A Streptococcus viability loss, dose response, counter-screen for streptokinase expression inhibitor project, luminescence, BacTiterGlo (AID 1915); type: functional, organism-based;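 also: potency for reduction of bacterial viability or growth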
# [9] = target: T1, Streptokinase A (Streptococcus pyogenes serotype M1, UniProt P10520); assay: S. pyogenes streptokinase expression inhibitors, potency, dose response, plasminogen activation absorbance, OD405 (AID 1914); type: functional, Streptococcus pyogenes M1 GAS;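 also: secreted streptokinase activity via plasminogen activation per viability signal from cell pellet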
# T1 sequence (P10520 whole entry): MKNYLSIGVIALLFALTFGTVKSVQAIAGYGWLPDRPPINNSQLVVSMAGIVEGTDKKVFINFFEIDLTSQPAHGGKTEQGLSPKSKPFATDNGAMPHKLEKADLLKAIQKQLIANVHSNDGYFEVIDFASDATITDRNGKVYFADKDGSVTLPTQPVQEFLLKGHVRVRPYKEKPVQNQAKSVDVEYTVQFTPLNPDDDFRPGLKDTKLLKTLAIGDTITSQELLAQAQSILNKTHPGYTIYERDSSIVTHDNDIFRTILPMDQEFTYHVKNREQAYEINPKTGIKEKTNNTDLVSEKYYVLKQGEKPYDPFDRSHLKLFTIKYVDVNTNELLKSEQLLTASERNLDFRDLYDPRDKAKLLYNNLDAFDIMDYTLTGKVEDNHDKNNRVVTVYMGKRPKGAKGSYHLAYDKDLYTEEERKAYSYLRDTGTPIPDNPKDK
# [10] = system: Streptococcus sp. 'group A'; assay: growth inhibition of control SK(-) GAS strain, dose response, counter-screen for streptokinase expression inhibitor project, luminescence, kanamycin, BacTiterGlo, confirmation (AID 1900); type: functional, organism-based
# [11] = system: INS1; assay: beta cell apoptosis inhibitors, cytokine rescue, dose response, luminescence, retest (AID 449756); type: functional, cell-based; details: Rattus norvegicus;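 also: cell death triggered by IL-1 beta plus TNF-alpha plus IFN-gamma mixture; protective hits raise ATP signal compared with cytokine alone wells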
# [12] = target: T2, Oxysterols receptor LXR-beta (Homo sapiens, UniProt P55055); type: functional, cell-based;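 also: Cell-based luminescence dose-response assay of agonist activity at LXR, run as a confirmatory counterscreen to a daf-12 agonist screen; HEK293 cells with Gal4-LXR fusion and GAL4-driven luciferase reporter; agonist potency from rising luciferase signal of a Gal4-LXR reporter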
# T2 sequence (P55055 whole entry): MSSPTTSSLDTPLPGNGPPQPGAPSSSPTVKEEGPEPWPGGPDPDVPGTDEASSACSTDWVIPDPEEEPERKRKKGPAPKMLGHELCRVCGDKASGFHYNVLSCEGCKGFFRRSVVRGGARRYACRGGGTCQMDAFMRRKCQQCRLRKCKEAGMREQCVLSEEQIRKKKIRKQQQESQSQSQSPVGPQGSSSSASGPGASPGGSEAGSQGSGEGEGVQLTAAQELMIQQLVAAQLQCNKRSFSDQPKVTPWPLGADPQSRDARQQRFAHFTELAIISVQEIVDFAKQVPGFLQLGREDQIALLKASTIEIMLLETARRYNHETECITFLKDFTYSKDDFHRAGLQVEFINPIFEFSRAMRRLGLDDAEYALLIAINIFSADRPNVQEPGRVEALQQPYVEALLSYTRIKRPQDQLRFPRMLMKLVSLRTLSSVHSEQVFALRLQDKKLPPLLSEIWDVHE
# [13] = cells
# [14] = target: Peroxisome proliferator-activated receptor gamma/Nuclear receptor coactivator 3 (Homo sapiens, UniProt P37231); assay: TR-FRET dose response biochemical High Throughput Screening assay for agonists of the steroid receptor coactivator 3 (SRC-3) recruitment by the peroxisome proliferator-activated receptor gamma (PPAR gamma): non-selective agonists. [Related pubchem assays: 1301 (Confirmation screen.), 1048 (Primary screen.)]; type: functional
# [15] = target: T3, Fibrinogen beta chain (Homo sapiens, UniProt P02675); assay: Fluorescence polarization-based biochemical high throughput dose response assay to identify inhibitors that disrupt the binding of a cyclic peptide (Tn7) to the fibrin proteolytic product D-Dimer and fragment E complex [DD(E )].
# T3 sequence (P02675 whole entry, the tested form may be a part): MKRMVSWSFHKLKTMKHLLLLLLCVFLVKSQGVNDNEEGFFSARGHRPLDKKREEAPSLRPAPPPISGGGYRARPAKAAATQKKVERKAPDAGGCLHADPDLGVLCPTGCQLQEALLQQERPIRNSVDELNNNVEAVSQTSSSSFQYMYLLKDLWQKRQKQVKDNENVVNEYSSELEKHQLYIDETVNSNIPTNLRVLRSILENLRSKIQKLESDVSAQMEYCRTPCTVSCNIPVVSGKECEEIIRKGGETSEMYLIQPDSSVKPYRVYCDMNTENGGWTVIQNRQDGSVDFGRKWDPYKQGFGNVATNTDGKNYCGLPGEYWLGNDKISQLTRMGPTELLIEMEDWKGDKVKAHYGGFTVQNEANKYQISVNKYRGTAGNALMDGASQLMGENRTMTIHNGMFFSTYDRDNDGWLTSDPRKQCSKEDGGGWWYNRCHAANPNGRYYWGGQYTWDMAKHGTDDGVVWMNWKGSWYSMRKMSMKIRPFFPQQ
# [16] = target: T3, Fibrinogen beta chain; assay: Fluorescence polarization-based biochemical high throughput dose response assay to identify inhibitors that disrupt the binding of a cyclic peptide (Tn6) to the fibrin proteolytic product D-Dimer and fragment E complex [DD(E )].
# [17] = target: T4, Polyadenylate-binding protein 1 (Homo sapiens, UniProt P11940); assay: PABP1 MLLE–PAM2 interaction inhibitors, dose response, miRNA deadenylation inhibitor project, biochemical, fluorescence polarization, Cy5-PAM2 peptide, secondary (AID 602260); type: functional; details: read-out: IC50_Mean
# T4 sequence (P11940 whole entry): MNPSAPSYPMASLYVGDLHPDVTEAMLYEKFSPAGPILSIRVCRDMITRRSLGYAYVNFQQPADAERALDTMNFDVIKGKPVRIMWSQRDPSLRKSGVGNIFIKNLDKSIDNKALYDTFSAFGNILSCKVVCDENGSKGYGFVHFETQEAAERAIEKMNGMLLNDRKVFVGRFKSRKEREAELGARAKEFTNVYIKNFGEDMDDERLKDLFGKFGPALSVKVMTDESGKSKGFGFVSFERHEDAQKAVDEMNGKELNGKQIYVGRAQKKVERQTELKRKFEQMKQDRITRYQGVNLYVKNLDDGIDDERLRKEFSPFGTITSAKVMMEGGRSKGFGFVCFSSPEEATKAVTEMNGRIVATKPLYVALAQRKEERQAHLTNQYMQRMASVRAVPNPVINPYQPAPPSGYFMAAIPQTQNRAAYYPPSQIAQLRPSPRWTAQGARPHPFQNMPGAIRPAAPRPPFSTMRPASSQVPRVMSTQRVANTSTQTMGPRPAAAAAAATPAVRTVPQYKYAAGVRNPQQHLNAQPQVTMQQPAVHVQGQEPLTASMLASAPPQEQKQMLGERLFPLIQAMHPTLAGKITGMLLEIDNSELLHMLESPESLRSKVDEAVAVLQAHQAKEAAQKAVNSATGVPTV
# [18] = target: Nonstructural protein 1 (Influenza A virus, UniProt Q194T2); type: functional, Influenza A virus (A/California/07/2009(H1N1))
# Sequence of Nonstructural protein 1 (Q194T2 whole entry): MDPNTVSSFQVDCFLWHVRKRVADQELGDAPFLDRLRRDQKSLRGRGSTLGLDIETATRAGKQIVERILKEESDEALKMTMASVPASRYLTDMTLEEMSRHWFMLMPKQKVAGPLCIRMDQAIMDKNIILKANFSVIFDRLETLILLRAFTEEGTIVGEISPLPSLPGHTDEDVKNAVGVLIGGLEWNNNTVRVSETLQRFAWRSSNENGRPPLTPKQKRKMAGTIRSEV
# [19] = target: T4, Polyadenylate-binding protein 1; assay: PABP1 MLLE–PAM2 binding inhibitor potency, dose response, biochemical, fluorescence polarization, FITC-PAM2 peptide (AID 602259); type: functional; details: read-out: IC50_Mean
# [20] = target: Peroxisome proliferator-activated receptor gamma/Nuclear receptor coactivator 2 (Homo sapiens, UniProt P37231); assay: (§1) TR-FRET dose response biochemical High Throughput Screening assay for agonists of the steroid receptor coactivator 2 (SRC-2) recruitment by the peroxisome proliferator-activated receptor gamma (PPAR gamma): non-selective agonists. [Related pubchem assays: 1297, 1032 ]; type: functional
# [21] = target: Peroxisome proliferator-activated receptor gamma/Nuclear receptor coactivator 1 (Homo sapiens, UniProt P37231); assay: as §1, with “1 (SRC-1)” for “2 (SRC-2)”, “assays (depositor defined):AID1300, AID1808, AID504735, AID631]” for “assays: 1297, 1032 ]”; type: protein assay
# Sequence of Peroxisome proliferator-activated receptor gamma/Nuclear receptor coactivator 1 (P37231 whole entry): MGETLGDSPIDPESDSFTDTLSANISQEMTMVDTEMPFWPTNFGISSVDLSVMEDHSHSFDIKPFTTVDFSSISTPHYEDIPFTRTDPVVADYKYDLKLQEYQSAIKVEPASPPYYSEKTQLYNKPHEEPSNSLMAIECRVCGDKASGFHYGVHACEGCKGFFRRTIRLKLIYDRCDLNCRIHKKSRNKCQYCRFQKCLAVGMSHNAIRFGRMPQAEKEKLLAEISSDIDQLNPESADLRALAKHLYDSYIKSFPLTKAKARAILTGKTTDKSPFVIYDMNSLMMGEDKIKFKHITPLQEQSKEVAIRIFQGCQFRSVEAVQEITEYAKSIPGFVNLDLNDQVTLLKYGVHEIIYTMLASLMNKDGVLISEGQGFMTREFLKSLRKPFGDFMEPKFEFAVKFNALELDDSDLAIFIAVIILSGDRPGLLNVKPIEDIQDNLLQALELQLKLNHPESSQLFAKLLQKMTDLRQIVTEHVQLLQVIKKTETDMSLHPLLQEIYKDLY
# Sequence of Peroxisome proliferator-activated receptor gamma/Nuclear receptor coactivator 1 (Q15788 whole entry, further chain): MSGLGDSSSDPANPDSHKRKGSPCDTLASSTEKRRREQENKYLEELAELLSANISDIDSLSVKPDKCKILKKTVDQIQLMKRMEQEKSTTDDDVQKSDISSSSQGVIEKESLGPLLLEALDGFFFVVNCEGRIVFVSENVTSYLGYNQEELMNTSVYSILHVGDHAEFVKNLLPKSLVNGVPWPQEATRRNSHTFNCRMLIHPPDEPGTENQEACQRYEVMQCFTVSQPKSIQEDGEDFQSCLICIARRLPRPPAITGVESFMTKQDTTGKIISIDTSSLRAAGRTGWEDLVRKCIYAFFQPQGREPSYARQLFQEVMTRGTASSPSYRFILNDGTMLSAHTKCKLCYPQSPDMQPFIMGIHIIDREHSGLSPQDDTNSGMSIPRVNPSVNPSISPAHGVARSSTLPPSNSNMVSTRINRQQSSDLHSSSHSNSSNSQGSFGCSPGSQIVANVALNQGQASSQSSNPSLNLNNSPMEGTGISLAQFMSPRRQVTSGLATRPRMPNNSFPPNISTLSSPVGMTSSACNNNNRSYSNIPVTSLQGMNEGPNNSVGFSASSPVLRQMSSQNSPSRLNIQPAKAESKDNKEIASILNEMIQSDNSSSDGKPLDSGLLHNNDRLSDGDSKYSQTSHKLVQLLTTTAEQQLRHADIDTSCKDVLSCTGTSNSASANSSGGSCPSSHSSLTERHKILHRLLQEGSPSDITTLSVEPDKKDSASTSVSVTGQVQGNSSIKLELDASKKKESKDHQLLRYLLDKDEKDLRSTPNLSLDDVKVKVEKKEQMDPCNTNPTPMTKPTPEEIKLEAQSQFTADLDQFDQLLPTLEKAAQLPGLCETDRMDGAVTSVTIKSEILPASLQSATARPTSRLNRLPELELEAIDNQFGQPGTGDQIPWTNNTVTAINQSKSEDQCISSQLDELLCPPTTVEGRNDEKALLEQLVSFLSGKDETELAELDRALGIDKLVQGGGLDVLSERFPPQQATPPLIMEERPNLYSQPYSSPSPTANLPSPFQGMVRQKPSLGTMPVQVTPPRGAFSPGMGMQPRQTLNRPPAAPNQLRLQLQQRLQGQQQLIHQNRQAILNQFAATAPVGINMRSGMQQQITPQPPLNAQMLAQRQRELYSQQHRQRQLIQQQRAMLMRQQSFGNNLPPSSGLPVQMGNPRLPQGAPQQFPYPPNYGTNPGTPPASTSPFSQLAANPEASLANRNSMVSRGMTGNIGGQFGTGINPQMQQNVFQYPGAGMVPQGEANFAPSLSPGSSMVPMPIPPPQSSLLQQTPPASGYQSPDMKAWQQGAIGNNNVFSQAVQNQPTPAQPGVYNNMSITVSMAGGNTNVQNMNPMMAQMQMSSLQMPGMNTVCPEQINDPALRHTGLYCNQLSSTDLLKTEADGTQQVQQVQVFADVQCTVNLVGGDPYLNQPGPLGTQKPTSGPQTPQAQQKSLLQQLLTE
# [22] = cells; remark: listed apart in the source
# [23] = target: T5, Methionyl-tRNA synthetase, putative (Trypanosoma brucei brucei, UniProt Q38C91); type: functional, Trypanosoma brucei brucei strain 927/4 GUTat10.1
# T5 sequence (Q38C91 whole entry): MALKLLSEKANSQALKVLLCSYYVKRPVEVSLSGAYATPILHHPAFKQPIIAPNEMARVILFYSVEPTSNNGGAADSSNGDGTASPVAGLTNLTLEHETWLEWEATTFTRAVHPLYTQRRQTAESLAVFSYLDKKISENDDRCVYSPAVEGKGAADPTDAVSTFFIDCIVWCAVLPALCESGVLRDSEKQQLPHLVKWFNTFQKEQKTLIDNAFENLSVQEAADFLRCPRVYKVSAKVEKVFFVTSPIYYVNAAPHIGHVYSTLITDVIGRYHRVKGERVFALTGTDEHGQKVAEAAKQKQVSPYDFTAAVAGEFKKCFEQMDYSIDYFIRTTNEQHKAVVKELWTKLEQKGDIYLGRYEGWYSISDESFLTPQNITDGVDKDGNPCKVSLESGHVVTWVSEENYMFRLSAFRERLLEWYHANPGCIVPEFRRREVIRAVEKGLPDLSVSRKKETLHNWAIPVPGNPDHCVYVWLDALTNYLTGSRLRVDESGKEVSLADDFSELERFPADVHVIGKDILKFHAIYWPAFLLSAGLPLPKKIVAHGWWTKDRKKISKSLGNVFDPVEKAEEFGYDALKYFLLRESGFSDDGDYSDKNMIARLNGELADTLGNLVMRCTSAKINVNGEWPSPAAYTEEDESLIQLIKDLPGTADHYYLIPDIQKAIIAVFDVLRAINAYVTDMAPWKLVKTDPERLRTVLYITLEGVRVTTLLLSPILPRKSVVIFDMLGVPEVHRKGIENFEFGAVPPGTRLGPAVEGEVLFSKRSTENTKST
# [24] = Counterscreen for inhibitors of Trypanosoma brucei methionyl tRNA synthetase (MetRS): Luminescence-based cell-based high throughput dose response assay to identify compounds that are cytotoxic to Jurkat human T lymphocyte cells.; type: functional
# [25] = target: T5, Methionyl-tRNA synthetase, putative; type: functional, Trypanosoma brucei brucei strain 927/4 GUTat10.1; remark: listed apart in the source
# [26] = Late stage counterscreen for inhibitors of Trypanosoma brucei methionyl tRNA synthetase (MetRS): Luminescence-based cell-based high throughput dose response assay to identify compounds that are cytotoxic to Jurkat human T lymphocyte cells.; type: functional
compound,measurement,setting,value
CN(c1ccccc1)S(=O)(=O)c1cccc(NC(=O)CSc2nncs2)c1,AC50,[1],15.8 µM (active)
same,AC50,[2],1.44 µM (active)
same,AC50,[3],4.3 µM (active)
same,AC50,[4],2.6 µM (active)
CCOC(=O)CNC(=O)CSc1ncnc2c1cnn2-c1ccc(OC)cc1,AC50,[5],34.4 µM (active)
same,AC50,[6],34.4 µM (active)
O=C(NNc1ccccc1Br)C(O)(c1cccc(C(F)(F)F)c1)c1cccc(C(F)(F)F)c1,IC50,[7],> 69.5 µM (inactive)
same,EC50,[8],9.39 µM (active)
same,EC50,[9],2.13 µM (active)
same,EC50,[10],3.48 µM (active)
same,AC50,[11],6.89 µM (active)
CSc1ccccc1-c1nnc(-c2ccccc2)o1,EC50,[12],> 67.5 µM (inactive)
same,EC50,[13],> 67.5 µM (inactive)
Cc1cc2cc(CNS(=O)(=O)c3ccc4ccccc4c3)ccc2n1C,EC50,[14],14.4 µM (not active)
same,IC50,[15],> 83.3 µM (inactive)
same,IC50,[16],21 µM (inactive)
same,IC50,[17],> 66 µM (inactive)
same,IC50,[18],46.8 µM (active)
same,IC50,[19],46.5 µM (inactive)
same,EC50,[20],6.29 µM (active)
same,EC50,[21],6.2 µM (active)
C#CCOc1ccc(C2C(C#N)=C(N)Oc3cc(O)ccc32)cc1 (stereo unspecified),AC50,[22],3.61 µM (active)
O=C(NCc1nc2ccccc2[nH]1)C1=C[C@@H](c2csc3ccccc23)C[C@@H](OCCCCO)O1,IC50,[23],1.36 µM (active)
same,IC50,[24],80.2 µM (inactive)
same,IC50,[25],1.91 µM (active)
same,IC50,[26],64.4 µM (inactive)
